Experiments:
[1] = Observation of defecation (loose stools) in rats during OGTT study; format: in vivo, SD rats; settings: 0.012 mg/kg oral gavage, within 48 hours before and after the experiment
Protocol: (§1) Experimental process: the animals were fed a normal diet with consecutive administration for 14 days, and the glucose tolerance test was performed on day 15, blood glucose was detected before administration (−30 min), before giving glucose (0 min), and 10, 30, 60, and 120 min after giving glucose solution, and the defecation of animals was observed.

[2] = Pharmacokinetic study in rats; format: in vivo, SD rats; settings: 10 mg/kg, oral gavage
Protocol: • Experimental animals: SPF male SD rats; • Dosage and method of administration: 10 mg/kg, oral gavage.
Research compound: Dapagliflozin, the compound of Example 5, the compound of Example 7, the compound of Comparative Example 6; • Test method: Before administration (0), and 1, 4, 8, and 24 hours after administration, 0.2 ml of blood was collected from orbital venous plexus, anticoagulated with heparin, and plasma was collected.

[3] = Observation of defecation (loose stools) in mice, day 1 to day 5; format: in vivo
Protocol: (§2) • Experimental animals: SPF male mice; • Compound preparation: an appropriate amount of the compounds of Example 5 was weighed, and uniformly suspended with an appropriate amount of 0.5% CMC-Na solution; • Preparation of glucose solution: an appropriate amount of glucose powder was weighed and dissolved with an appropriate amount of pure water; • Administration and dosage: oral gavage; blank vehicle group, high-dose group (1.6 mg/kg), low-dose group (0.12 mg/kg).
(§3) Experimental process: • (1) The mice were fed a high-sugar diet for 6 days, and then grouped (10 mice in each group) to enter the administration stage; • (2) Example compound 5 was administered at 5:00 pm every day from day 1 to day 5, once a day, and then the animals were fed a high-sugar free diet, and the defecation of the animals was observed. • (3) On day 6, oral glucose tolerance test was performed, and glucose solution (2 g/kg) was orally administered. Blood glucose was detected before (0 min) and 10, 30, and 60 min after giving glucose solution, respectively.

blood glucose [4] = test: Oral glucose tolerance test (OGTT) after consecutive administration in mice; format: in vivo; settings: oral gavage 5 days, OGTT on day 6
Protocol: as §2, §3

blood glucose [5] = test: In vivo hypoglycemic efficacy experiment combined with sitagliptin, STZ-induced type 2 diabetes mouse model; set-up: species or system Balb/C male mice
Protocol: Model establishment: SPF grade Balb/C male mice were used in this experiment, and the establishment of the type 2 diabetes mouse model was induced by intraperitoneal injection of streptozotocin (STZ) supplemented by high-fat and high-sugar diet.
Administration: normal group, model group, low-dose combined administration group (the compound of Example 5 0.02 mg/kg+sitagliptin 20 mg/kg), medium-dose combined administration group (the compound of Example 5 0.06 mg/kg+sitagliptin 20 mg/kg), high-dose combined administration group (the compound of Example 5 0.1 mg/kg+sitagliptin 20 mg/kg), sitagliptin group (20 mg/kg). The normal group and the model group were given the solvent by gavage.

blood glucose [6] = test: Oral glucose tolerance test (OGTT) after continuous administration in rats for 14 days; format: in vivo, SD rats; settings: 0.012 mg/kg oral gavage, OGTT on day 15
Protocol: • Experimental animals: SPF male SD rats; • Compound preparation: an appropriate amount of the compounds of Example 2, Example 3, and Example 5 were weighed, and uniformly suspended with an appropriate amount of 0.5% CMC-Na solution; • Preparation of glucose solution: an appropriate amount of glucose powder was weighed and dissolved with an appropriate amount of pure water; • Dosage and method of administration: 0.012 mg/kg, oral gavage.
as §1

SGLT1 = biological target: T1, SGLT1 (Homo sapiens, UniProt P13866); test: SGLT1 Inhibitor Activity Experiment 1; format: cell-based
T1 sequence (P13866 1-664): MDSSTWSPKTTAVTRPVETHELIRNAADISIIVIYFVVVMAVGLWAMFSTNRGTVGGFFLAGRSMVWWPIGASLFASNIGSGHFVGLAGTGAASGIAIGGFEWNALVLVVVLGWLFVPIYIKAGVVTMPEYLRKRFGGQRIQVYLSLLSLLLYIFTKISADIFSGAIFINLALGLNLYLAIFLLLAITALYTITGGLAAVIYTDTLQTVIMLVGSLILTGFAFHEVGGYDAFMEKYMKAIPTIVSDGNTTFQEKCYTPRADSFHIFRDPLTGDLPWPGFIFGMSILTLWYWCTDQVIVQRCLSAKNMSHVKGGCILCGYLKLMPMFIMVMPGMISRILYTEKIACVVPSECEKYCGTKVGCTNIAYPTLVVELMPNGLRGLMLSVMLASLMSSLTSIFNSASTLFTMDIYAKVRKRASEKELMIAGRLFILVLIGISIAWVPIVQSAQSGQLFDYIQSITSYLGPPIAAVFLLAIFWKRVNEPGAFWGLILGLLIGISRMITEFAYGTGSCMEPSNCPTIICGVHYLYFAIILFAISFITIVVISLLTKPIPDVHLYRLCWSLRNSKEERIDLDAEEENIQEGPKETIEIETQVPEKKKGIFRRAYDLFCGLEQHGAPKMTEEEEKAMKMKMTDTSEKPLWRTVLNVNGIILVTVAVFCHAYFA
Protocol: The inhibitory activity of SGLT1 was tested with reference to the method described in document (Journal of Medicinal Chemistry 2017, 60, 710-721, Discovery of LX2761, a Sodium-Dependent Glucose Cotransporter 1 (SGLT1) Inhibitor Restricted to the Intestinal Lumen, for the Treatment of Diabetes).

rat feces suspension = test: Intestinal microbial metabolic stability in rat feces suspension; format: in vitro ADME; settings: for Remaining percentage of compound: rat feces suspension, 37 C
Protocol: Methods: The collected rat feces were processed, and the feces suspension was obtained for the determination of metabolic stability. The mixed reaction system consisting of the rat feces suspension and the compound of Example 5 was incubated at 37 C for 3 h, 6 h, 12 h and 24 h. The compound of Example 5 in the incubation system was analyzed to determine the total amount of remaining compound. Wherein, “+” represents the remaining percentage being: <50%; “++” represents the remaining percentage being: 50% to 70%; “+++” represents the remaining percentage being: 70% to 90%; […].

Structure (SMILES): C#CCN(C)CCNC(=O)CCCc1ccc(Cc2cc([C@@H]3O[C@H](SC)[C@@H](O)[C@H](O)[C@H]3O)ccc2C)cc1 [Example 5]
- loose stools in experimental animals [1]: no loose stools were observed
- absorption in vivo after oral administration (in words) [2]: almost no absorption in vivo
- detection in vivo after oral administration (in words) [2]: hardly detected in vivo
- bioavailability ([2]; male, SD, rat, plasma, po, read-out: Absolute Bioavailability(F %)): < 1.5%
- number of animals with loose stools ([3]; high dose group (1.6 mg/kg), day 1): 1 animal
- loose stools (in words) ([3]; high dose group (1.6 mg/kg), day 2 to day 5): did not have loose stools
- Statistics of loose stools in animals ([3]; high-dose group (1.6 mg/kg), Day 1, animals with loose stool/animals in group): 1/10
- Statistics of loose stools in animals ([3]; high-dose group (1.6 mg/kg), Day 2): 0/10
- Statistics of loose stools in animals ([3]; high-dose group (1.6 mg/kg), Day 3): 0/10
- Statistics of loose stools in animals ([3]; high-dose group (1.6 mg/kg), Day 4): 0/10
- Statistics of loose stools in animals ([3]; high-dose group (1.6 mg/kg), Day 5): 0/10
- Statistics of loose stools in animals ([3]; low-dose group (0.12 mg/kg), Day 1): 0/10
- Statistics of loose stools in animals ([3]; low-dose group (0.12 mg/kg), Day 2): 0/10
- Statistics of loose stools in animals ([3]; low-dose group (0.12 mg/kg), Day 3): 0/10
- Statistics of loose stools in animals ([3]; low-dose group (0.12 mg/kg), Day 4): 0/10
- Statistics of loose stools in animals ([3]; low-dose group (0.12 mg/kg), Day 5): 0/10
- loose stools (in words) ([3]; low-dose group (0.12 mg/kg), continuous administration for 5 days): did not have loose stools
- blood glucose level of mice in OGTT (blood glucose [4]; high-dose group (1.6 mg/kg)): significantly reduce the blood glucose level
- blood glucose level of mice in OGTT (blood glucose [4]; low-dose group (0.12 mg/kg)): significantly reduce the blood glucose level
- dose-effect relationship of blood glucose reduction (blood glucose [5]; Example 5 0.02, 0.06, 0.1 mg/kg combined with sitagliptin 20 mg/kg): there is a dose-effect relationship
- blood glucose level of diabetic model animals (blood glucose [5]; Example 5 0.02, 0.06 or 0.1 mg/kg combined with sitagliptin 20 mg/kg): significantly reduce the blood glucose level
- blood sugar level of rats in OGTT (blood glucose [6]): significantly reduce the blood sugar level
- IC50 (SGLT1): < 50 nM
- remaining compound (rat feces suspension; incubated with microorganisms in rat feces for about 24 hours): > 70%
- Remaining percentage of compound (rat feces suspension; incubation 12 h): +++ (the remaining percentage being: 70% to 90%)
- Remaining percentage of compound (rat feces suspension; incubation 24 h): +++ (the remaining percentage being: 70% to 90%)

Reference: patent publication US12522628B2, “Aryl glucoside derivative and use thereof in drug” (SHANGHAI ZHEYE BIOTECHNOLOGY CO. LTD., priority 2020, dated 2026)
